Experiments:
[1] = cited from earlier work; for t1/2: Table 1, daily dose 15-160 mg as listed; for half-life of elimination, normal, mean: drug given alone; for mean plasma elimination half-life: healthy adults, clinical studies
[2] = test system: 2C19 and 3A4 isoforms of the Cytochrome P450 enzyme; settings: liver; cited from earlier work
[3] = test system: Barrett's esophagus; settings: extended treatment (years), twice per day or more, with or without surgery; cited from earlier work
[4] = rats; drug or its metabolites; cited from earlier work
[5] = clinical trials; Zegerid (omeprazole) and Prevacid (lansoprazole) package inserts; cited from earlier work
[6] = Cross-over study, blood draws: AUC and half-life of PPI; type: in vivo, human; settings: for prolongation factor of elimination half-life: omeprazole and lansoprazole administered together versus normal
Protocol: (§1) A study was performed as a cross-over design, with washout between doses. The subject received the test article after placing a Bravo pH probe in the stomach and verifying its placement with pH readings of less than 2. After a baseline evaluation, to ensure that the pH probe is in the correct place for reading gastric acid in the stomach, the subject has an intravenous access established and a baseline blood draw was taken to provide evidence of a lack of PPI in the blood at baseline. The subject received the one of three different formulations, and the time of administration was noted. Blood draws were taken at intervals to characterize the absorption, distribution and elimination phases of the test article. […] Continuous gastric pH recording was made utilizing the Bravo pH probe and radiofrequency receiver. Gastric pH values were recorded every 10 seconds.
as §1, with “eighteen” for “three”

[7] = test system: intragastric acidity; settings: after a single dose of PPI (Day 1); 20 mg delayed release; cited from earlier work

Cc1c(OCC(F)(F)F)ccnc1C[S@@+]([O-])c1nc2ccccc2[nH]1 [Dexlansoprazole]
t1/2 [1]: 1 to 1.6 h

COc1ccc2nc([S@@+]([O-])Cc3ncc(C)c(OC)c3C)[nH]c2c1 [Esomerprazole]
t1/2 [1]: 1.1 to 1.6 h

Cc1c(OCC(F)(F)F)ccnc1C[S+]([O-])c1nc2ccccc2[nH]1 (stereo not shown) [Lansoprazole]
metabolism by Cytochrome P450 isoforms [2]: approximately equal amounts by both the 2C19 and 3A4 isoforms | patients with reversal of Barrett's esophagus [3]: 3 of 123 | excretion in breast milk [4]: excreted in breast milk | Adverse effect: Abdominal pain [5]: 2.1 % of patients | Adverse effect: Asthenia [5]: <1 % of patients | Adverse effect: Constipation [5]: 1.0 % of patients | Adverse effect: Diarrhea [5]: 3.8 % of patients | Adverse effect: Headache [5]: <1 % of patients | half-life ([6]; human, blood, oral, omeprazole and lansoprazole together, e.g. 80 mg lansoprazole+80 mg omeprazole+1680 mg sodium bicarbonate, read-out: elimination half-life when administered together (converted)): 3.7 h | prolongation factor of elimination half-life [6]: 300% | t1/2 [1]: 1 to 1.5 h | half-life of elimination, normal, mean [1]: approximately 1.2 hrs | mean plasma elimination half-life [1]: about 1.5 hours

COc1ccc2[nH]c([S+]([O-])Cc3ncc(C)c(OC)c3C)nc2c1 (stereo not shown) [Omeprazole, 5-methoxy-2-[[(4-methoxy-3,5-dimethyl-2-pyridinyl)methyl]sulfinyl]-1H benzimidazole]
metabolism by Cytochrome P450 isoforms [2]: mostly by the 2C19 isoform | patients with reversal of Barrett's esophagus [3]: 3 of 123 | Adverse effect: Abdominal pain [5]: 5.2 % of patients | Adverse effect: Asthenia [5]: 1.3 % of patients | Adverse effect: Constipation [5]: 1.5 % of patients | Adverse effect: Diarrhea [5]: 3.7 % of patients | Adverse effect: Headache [5]: 2.9 % of patients | IGA-24Day 1 [7]: 640 mmol·h/L | prolongation factor of elimination half-life [6]: 200% | elimination half-life when administered together ([6]; omeprazole and lansoprazole together, e.g. 80 mg lansoprazole+80 mg omeprazole+1680 mg sodium bicarbonate): 1.9 h | t1/2 [1]: 0.9 to 1.5 h | half-life of elimination, normal, mean [1]: approximately 0.95 hrs | mean plasma elimination half-life [1]: less than 1 hours

COc1ccnc(C[S+]([O-])c2nc3ccc(OC(F)F)cc3[nH]2)c1OC (stereo not shown) [Pantoprazole]
t1/2 [1]: 1.2 to 1.5 h

COCCCOc1ccnc(C[S+]([O-])c2nc3ccccc3[nH]2)c1C (stereo not shown) [Rabeprazole]
t1/2 [1]: 0.8 to 1 h

COc1ccc2[nH]c([S+]([O-])Cc3ncc(C)c(OC)c3C)nc2n1 (stereo not shown) [Tentaoprazole, 5-methoxy-2-[[(4-methoxy-3,5-dimethyl-2-pyridyl)methyl]sulfinyl]imidazo[4,5-b]pyridine]
t1/2 [1]: 6.8 to 8 h

From patent US9351966B2, “Composition comprising a combination of omeprazole and lansoprazole, and a buffering agent, and methods of using same” (The Curators of the University of Missouri, priority 2008, dated 2016)
